Assay results taken from patent US20230136562A1, “SPIROUREA DERIVATIVES” (Idorsia Pharmaceuticals Ltd, priority 2020, published 2023).
Read-outs that look alike come from different tables or passages of the source.

Tested on: primary neuronal cultures from embryonic rat brains
Experiment: Rat oscillation assay (FLIPR, neuronal calcium oscillations)
Format: cell-based
Conditions: Rattus norvegicus
How it was run: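 Cortical neurons from E18 Wistar rat embryos, cultured 8–10 days at high density, loaded with 1 μM Fluo-8 AM; calcium oscillations recorded by FLIPR once per second in Mg-free HBSS with 2 mM CaCl2, 20 mM HEPES, pH 7.4. Two acquisitions ("Acute", 500 sec, compound added at 250 sec; "20 min"), ± Kv7 blocker XE-991.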

[1] = 20 min, AUC of fluorescence measured 20 min after compound addition, read-out: FLIPR: IC50 [nM] 20 min
[2] = Acute phase, ratio of AUC fluorescence before and after compound addition, read-out: FLIPR: IC50 [nM] acute

| Compound | IC50 [1] [nM] | IC50 [2] [nM] |
| --- | --- | --- |
| O=C(NC1CC2(CC2)C1)N[C@@H](CO)c1cccc(C(F)(F)F)c1 (single isomer, unassigned) [Example 186] | 40 | 20 |
| O=C(NCc1cccc(C(F)(F)F)c1)NC1CC2(CC2)C1 [Example 2, 1-Spiro[2.3]hex-5-yl-3-(3-trifluoromethyl-benzyl)-urea] | 86 | 63 |
| O=C(NCc1cc(OCC(F)(F)F)ncn1)NC1CC2(CCC2)C1 [Example 59, 1-Spiro[3.3]hept-2-yl-3-[6-(2,2,2-trifluoro-ethoxy)-pyrimidin-4-ylmethyl]-urea] | 61 | 45 |
